Measured values published in ChEMBL document CHEMBL4311943, “3-[(1S,2S,3R)-2,3-Difluoro-1-hydroxy-7-methylsulfonylindan-4-yl]oxy-5-fluorobenzonitrile (PT2977), a Hypoxia-Inducible Factor 2α (HIF-2α) Inhibitor for the Treatment of Clear Cell Renal Cell Carcinoma” (J Med Chem, 2019).
In brackets after ≈: the same amount, converted by molar mass. Activity calls are given as the source filed them. The rule behind the calls is not given here.

Columns and labels:
[1] = target: T1, UGT2B17 (Homo sapiens, UniProt O75795); assay: Substrate activity at UGT2B17 in human intestinal microsomes assessed as enzyme-mediated glucuronidation by measuring Km at 2 to 1000 uM preincubated for 5 mins followed by UDPGA addition and measured after 60 mins by LC-MS/MS analysis; assay type: ADME, Intestine
T1 sequence (O75795 whole entry): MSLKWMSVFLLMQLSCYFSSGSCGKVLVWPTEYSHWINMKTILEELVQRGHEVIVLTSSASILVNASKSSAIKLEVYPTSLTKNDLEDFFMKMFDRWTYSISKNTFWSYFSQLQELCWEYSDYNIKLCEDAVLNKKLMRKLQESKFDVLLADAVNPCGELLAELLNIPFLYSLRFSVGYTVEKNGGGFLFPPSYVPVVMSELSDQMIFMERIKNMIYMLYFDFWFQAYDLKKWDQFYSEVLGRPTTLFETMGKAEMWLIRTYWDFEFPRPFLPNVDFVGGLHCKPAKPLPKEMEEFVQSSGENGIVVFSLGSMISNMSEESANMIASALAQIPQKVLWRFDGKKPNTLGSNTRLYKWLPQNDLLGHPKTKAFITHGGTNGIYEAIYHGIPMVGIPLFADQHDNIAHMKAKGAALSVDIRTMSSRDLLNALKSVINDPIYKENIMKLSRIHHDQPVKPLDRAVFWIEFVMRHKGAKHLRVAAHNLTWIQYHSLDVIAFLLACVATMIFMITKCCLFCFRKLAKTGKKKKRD

[2] = target: T1, UGT2B17; assay: Substrate activity at recombinant human UGT2B17 expressed in baculovirus infected insect cell membranes assessed as enzyme-mediated glucuronidation by measuring Km at 50 uM preincubated for 5 mins followed by UDPGA addition and measured after 60 mins by LC-MS/MS analysis; assay type: ADME
[3] = target: T2, UDP-glucuronosyltransferase 2B17 (Homo sapiens, UniProt O75795); assay: Substrate activity at recombinant human UGT2B17 expressed in baculovirus infected insect cell membranes assessed as enzyme-mediated glucuronidation by measuring Vmax per mg protein at 50 uM preincubated for 5 mins followed by UDPGA addition and measured after 60 mins by LC-MS/MS analysis; assay type: ADME; conditions: 1 h
T2 sequence (O75795 whole entry): T1 sequence (O75795 whole entry)

[4] = target: T2, UDP-glucuronosyltransferase 2B17; assay: Substrate activity at UGT2B17 in human intestinal microsomes assessed as enzyme-mediated glucuronidation by measuring Vmax per mg protein at 2 to 1000 uM preincubated for 5 mins followed by UDPGA addition and measured after 60 mins by LC-MS/MS analysis; assay type: ADME, Intestine; conditions: 1 h
[5] = target: UDP-glucuronosyltransferase 1A3 (Homo sapiens, UniProt P35503); assay: Substrate activity at recombinant human UGT1A3 expressed in baculovirus infected insect cell membranes assessed as enzyme-mediated glucuronidation by measuring PT2639 formation at 50 uM preincubated for 5 mins followed by UDPGA addition and measured after 60 mins by LC-MS/MS analysis; assay type: ADME; conditions: 1 h
[6] = Dose normalized AUClast in monkey at 10 mg/kg, po administered via gavage by UPLC-MS analysis; assay type: ADME, organism-based, Macaca mulatta; conditions: rhesus monkey, in vivo
[7] = Thermodynamic aqueous solubility of the compound at pH 7.4; assay type: physicochemical; conditions: buffer, read-out: Therm_solubility
[8] = system: Mus musculus; assay: In vivo inhibition of HIF-2alpha in SCID Beige mouse xenografted with human 786-O cells assessed as reduction in cyclin D1 mRNA expression at 10 mg/kg, po administered twice daily via gavage for 3 days measured 12 hrs post-last dose by qRT-PCR analysis; assay type: functional, organism-based
[9] = Dose normalized AUClast in CD-1 mouse at 10 mg/kg, po administered via gavage by UPLC-MS analysis; assay type: ADME, organism-based; conditions: in vivo
[10] = Drug level in plasma of SCID Beige mouse xenografted with human 786-O cells at 10 mg/kg, po administered twice daily via gavage for 3 days measured 12 hrs post-last dose; assay type: ADME, organism-based
[11] = Drug metabolism in human hepatocytes assessed as PT2639 formation by HPLC-UV analysis; assay type: ADME, cell-based, Hepatocyte
[12] = Cmin in patient with advanced solid tumor at 800 mg, po administered twice daily measured on day 15 measured after 12 hrs; conditions: human, in vivo
[13] = Dose normalized AUClast in Beagle dog at 5 mg/kg, po administered via gavage by UPLC-MS analysis; assay type: ADME, organism-based, Canis lupus familiaris; conditions: in vivo
[14] = Protein binding in mouse plasma at 10 uM measured after 4 hrs by LC-MS/MS analysis; assay type: ADME, cell-free; conditions: read-out: PPB (converted)
[15] = system: 786-0; assay: Antitumor activity against human 786-O cells xenografted in SCID Beige mouse assessed as tumor regression at 10 mg/kg, po administered twice daily via gavage for 3 days measured 12 hrs post-last; assay type: functional, organism-based
[16] = Lipophilicity, log D of the compound at pH 7.4; assay type: physicochemical; conditions: buffer
[17] = Dose normalized AUClast in Sprague-Dawley rat at 10 mg/kg, po administered via gavage by UPLC-MS analysis; assay type: ADME, organism-based; conditions: in vivo
[18] = system: Homo sapiens; assay: In vivo inhibition of HIF-2alpha in patient with advanced solid tumor assessed as reduction in EPO expression at >500 ng/ml, po administered once daily; assay type: organism-based
[19] = target: UDP-glucuronosyltransferase 1A7 (Homo sapiens, UniProt Q9HAW7); assay: Substrate activity at recombinant human UGT1A7 expressed in baculovirus infected insect cell membranes assessed as enzyme-mediated glucuronidation by measuring PT2639 formation at 50 uM preincubated for 5 mins followed by UDPGA addition and measured after 60 mins by LC-MS/MS analysis; assay type: ADME; conditions: 1 h
[20] = Drug metabolism in po dosed dog urine assessed as PT2639 formation; assay type: ADME, organism-based, Canis lupus familiaris; conditions: in vivo
[21] = Protein binding in human plasma at 10 uM measured after 4 hrs by LC-MS/MS analysis; assay type: ADME, cell-free; conditions: read-out: PPB (converted)
[22] = target: T3, Endothelial PAS domain-containing protein 1 (Homo sapiens, UniProt Q99814); assay: Inhibition of N-(3-Chlorophenyl-4,6-t2)-4-nitrobenzo[c][1,2,5]oxadiazol-5-amine binding to his-tagged HIF-2alpha PAS-B domain (unknown origin) measured after 1 hr by scintillation proximity assay
[23] = target: T3, Endothelial PAS domain-containing protein 1
Description: Inhibition of HIF-2alpha (unknown origin) expressed in human 786-O cells measured after 24 hrs by one-glo luciferase reporter gene assay

[24] = target: MRP2 (ABCC2) (Homo sapiens, UniProt Q92887); assay: Substrate activity at human MRP2 expressed in Sf9 membrane vesicles assessed as Km; assay type: ADME; conditions: Sf9 membrane vesicles expressing human MRP2
[25] = Drug level in human hepatocytes treated with PT2385 assessed as metabolite formation by HPLC-UV analysis; assay type: ADME, cell-based, Hepatocyte
[26] = target: BCRP (ABCG2) (Homo sapiens, UniProt Q9UNQ0); assay: Substrate activity at BCRP (unknown origin) expressed in MDCK2 cells assessed as efflux ratio of permeability at up to 300 uM; assay type: ADME, cell-based
[27] = target: T4, ATP-binding cassette sub-family C member 2 (Homo sapiens, UniProt Q92887); assay: Ratio of compound effect for substrate activity at human MRP2 expressed in Sf9 membrane vesicles assessed as protein-mediated drug uptake in presence of ATP to compound effect for substrate activity at human MRP2 expressed in Sf9 membrane vesicles assessed as protein-mediated drug uptake in absence of ATP; assay type: ADME, cell membranes
[28] = target: T4, ATP-binding cassette sub-family C member 2; assay: Substrate activity at human MRP2 expressed in Sf9 membrane vesicles assessed as Vmax per mg protein; assay type: ADME
[29] = target: Beta-glucuronidase (Escherichia coli (strain K12), UniProt P05804); assay: Drug metabolism assessed as Escherichia coli beta-glucuronidase-mediated PT2385 formation after 30 mins by LC-MS/MS analysis; assay type: ADME; conditions: isolated protein, 0.5 h
[30] = Drug metabolism in iv or po dosed dog assessed as PT2385 formation; assay type: ADME, organism-based, Canis lupus familiaris; conditions: in vivo
[31] = target: P-gp (ABCB1) (Homo sapiens, UniProt P08183); assay: Substrate activity at P-gp (unknown origin) expressed in MDCK2 cells assessed as efflux ratio of permeability at up to 300 uM; assay type: ADME, cell-based; conditions: MDCK-MDR1

T3 sequence (Q99814 whole entry, the tested form may be a part): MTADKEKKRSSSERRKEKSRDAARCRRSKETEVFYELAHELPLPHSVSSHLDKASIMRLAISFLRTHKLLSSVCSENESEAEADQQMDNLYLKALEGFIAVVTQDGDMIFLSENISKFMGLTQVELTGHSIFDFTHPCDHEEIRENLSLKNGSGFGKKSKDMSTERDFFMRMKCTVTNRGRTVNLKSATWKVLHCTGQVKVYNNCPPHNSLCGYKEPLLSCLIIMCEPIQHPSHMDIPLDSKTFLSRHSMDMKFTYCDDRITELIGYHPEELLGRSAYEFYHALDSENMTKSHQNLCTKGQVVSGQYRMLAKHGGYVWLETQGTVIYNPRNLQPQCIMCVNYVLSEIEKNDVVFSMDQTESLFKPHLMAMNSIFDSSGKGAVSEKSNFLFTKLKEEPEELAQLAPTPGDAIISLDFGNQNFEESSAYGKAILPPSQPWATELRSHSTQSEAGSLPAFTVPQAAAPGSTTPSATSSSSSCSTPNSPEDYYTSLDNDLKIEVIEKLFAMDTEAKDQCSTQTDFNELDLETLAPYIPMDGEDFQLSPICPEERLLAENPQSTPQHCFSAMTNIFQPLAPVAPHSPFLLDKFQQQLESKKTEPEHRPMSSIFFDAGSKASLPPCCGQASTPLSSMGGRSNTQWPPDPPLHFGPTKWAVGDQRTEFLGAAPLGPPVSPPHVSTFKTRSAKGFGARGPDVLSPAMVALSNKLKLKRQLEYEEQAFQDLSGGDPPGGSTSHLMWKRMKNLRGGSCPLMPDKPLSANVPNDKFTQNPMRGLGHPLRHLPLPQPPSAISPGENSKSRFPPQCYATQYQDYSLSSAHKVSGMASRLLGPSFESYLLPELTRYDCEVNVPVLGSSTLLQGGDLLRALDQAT
T4 sequence (Q92887 whole entry): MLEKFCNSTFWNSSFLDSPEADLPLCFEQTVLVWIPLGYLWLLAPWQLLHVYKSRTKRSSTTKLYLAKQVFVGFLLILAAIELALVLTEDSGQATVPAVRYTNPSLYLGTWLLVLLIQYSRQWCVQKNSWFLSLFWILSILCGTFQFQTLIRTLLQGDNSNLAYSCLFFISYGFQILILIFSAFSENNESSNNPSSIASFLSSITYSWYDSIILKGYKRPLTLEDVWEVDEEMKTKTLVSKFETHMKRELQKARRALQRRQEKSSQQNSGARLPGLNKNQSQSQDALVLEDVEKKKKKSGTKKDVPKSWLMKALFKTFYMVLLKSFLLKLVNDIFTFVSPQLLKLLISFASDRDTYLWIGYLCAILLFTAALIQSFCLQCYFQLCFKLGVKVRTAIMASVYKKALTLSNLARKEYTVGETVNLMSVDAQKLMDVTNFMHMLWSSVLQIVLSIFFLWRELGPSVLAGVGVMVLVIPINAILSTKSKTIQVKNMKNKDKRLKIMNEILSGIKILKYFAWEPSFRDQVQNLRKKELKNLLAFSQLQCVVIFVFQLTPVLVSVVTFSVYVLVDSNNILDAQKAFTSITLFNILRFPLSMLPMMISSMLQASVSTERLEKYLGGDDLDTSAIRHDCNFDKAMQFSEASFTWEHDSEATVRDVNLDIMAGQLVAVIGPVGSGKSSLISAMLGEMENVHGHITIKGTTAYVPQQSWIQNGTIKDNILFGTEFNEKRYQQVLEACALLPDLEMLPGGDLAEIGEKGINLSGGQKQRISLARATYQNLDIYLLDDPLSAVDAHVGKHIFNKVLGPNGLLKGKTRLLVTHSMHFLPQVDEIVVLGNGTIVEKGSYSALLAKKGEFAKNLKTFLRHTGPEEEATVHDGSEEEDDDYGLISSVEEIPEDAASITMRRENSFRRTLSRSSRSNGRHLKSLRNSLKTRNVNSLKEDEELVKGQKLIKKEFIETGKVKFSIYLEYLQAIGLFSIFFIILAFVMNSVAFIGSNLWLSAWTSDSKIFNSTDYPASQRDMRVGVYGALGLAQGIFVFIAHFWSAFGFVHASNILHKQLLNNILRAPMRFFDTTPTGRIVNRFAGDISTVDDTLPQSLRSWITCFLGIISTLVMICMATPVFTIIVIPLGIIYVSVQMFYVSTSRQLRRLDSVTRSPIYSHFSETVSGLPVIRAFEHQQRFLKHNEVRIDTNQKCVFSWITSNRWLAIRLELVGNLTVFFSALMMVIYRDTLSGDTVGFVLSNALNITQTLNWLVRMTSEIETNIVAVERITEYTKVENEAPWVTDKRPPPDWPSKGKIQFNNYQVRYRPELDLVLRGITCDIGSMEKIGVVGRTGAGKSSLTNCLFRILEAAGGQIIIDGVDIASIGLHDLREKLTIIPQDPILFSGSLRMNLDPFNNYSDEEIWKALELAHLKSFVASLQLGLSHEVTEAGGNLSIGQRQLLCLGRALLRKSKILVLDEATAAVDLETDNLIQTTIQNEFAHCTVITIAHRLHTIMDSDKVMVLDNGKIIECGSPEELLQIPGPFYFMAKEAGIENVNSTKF
Chain of BCRP (ABCG2) (Q9UNQ0 whole entry): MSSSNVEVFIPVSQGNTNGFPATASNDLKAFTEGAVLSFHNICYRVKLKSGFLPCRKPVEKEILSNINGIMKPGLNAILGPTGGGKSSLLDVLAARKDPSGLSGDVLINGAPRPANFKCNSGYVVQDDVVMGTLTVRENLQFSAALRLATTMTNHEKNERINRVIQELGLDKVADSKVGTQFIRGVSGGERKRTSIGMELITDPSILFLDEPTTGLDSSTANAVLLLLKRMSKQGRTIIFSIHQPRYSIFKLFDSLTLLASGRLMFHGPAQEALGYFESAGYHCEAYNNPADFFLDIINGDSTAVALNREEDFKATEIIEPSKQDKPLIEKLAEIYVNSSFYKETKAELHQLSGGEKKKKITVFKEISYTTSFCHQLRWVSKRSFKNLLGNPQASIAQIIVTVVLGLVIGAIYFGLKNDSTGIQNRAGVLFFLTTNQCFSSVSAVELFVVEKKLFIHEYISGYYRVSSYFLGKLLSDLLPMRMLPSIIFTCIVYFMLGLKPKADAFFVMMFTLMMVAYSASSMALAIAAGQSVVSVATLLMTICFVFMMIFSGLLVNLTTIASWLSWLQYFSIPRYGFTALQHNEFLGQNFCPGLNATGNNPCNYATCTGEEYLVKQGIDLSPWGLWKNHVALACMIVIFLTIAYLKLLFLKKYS
Chain of UDP-glucuronosyltransferase 1A3 (P35503 whole entry): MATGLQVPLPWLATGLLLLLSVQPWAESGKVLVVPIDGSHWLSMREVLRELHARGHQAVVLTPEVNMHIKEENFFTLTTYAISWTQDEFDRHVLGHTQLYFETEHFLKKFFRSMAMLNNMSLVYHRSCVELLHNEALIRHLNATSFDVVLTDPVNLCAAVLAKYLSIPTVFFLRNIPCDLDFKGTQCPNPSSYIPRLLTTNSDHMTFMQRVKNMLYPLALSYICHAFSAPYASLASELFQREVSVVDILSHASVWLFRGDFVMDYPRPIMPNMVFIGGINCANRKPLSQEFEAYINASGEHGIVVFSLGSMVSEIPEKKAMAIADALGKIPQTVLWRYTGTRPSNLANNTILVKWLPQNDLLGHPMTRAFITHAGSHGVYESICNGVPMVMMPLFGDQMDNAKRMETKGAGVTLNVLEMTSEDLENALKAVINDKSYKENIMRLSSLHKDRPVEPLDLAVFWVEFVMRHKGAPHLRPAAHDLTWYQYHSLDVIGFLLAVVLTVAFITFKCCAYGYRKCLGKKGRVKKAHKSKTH
Chain of Beta-glucuronidase (P05804 whole entry): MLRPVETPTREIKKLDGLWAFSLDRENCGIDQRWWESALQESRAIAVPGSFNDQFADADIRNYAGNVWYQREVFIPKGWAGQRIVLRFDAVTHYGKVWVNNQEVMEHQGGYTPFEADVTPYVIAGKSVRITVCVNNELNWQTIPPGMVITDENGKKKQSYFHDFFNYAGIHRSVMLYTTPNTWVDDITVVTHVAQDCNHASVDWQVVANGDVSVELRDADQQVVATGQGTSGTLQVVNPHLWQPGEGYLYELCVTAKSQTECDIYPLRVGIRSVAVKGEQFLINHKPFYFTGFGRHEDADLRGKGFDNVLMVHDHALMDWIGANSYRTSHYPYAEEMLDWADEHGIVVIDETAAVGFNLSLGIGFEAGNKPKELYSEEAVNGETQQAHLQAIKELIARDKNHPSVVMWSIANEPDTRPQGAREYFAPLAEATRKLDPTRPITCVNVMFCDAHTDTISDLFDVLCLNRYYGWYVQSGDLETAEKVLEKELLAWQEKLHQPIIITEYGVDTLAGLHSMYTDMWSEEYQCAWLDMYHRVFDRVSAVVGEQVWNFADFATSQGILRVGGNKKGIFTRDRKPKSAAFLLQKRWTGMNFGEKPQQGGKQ
Chain of UDP-glucuronosyltransferase 1A7 (Q9HAW7 whole entry): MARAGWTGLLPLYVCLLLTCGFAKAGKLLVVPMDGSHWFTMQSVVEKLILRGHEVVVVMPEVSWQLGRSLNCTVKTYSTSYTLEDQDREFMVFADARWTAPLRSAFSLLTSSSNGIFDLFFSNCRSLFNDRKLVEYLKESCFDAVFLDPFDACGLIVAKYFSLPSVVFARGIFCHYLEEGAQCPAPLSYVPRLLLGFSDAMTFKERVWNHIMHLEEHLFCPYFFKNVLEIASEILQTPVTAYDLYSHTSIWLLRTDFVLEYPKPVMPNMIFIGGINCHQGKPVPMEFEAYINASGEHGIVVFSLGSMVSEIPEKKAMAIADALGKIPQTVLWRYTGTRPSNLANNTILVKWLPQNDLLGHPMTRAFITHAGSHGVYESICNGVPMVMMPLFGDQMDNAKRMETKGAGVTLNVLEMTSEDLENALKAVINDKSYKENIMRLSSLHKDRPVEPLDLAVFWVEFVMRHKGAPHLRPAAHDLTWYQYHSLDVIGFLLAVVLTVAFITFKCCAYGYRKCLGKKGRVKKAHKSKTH
Chain of MRP2 (ABCC2) (Q92887 whole entry): as the sequence (Q92887 whole entry) above

Km at 1 h, up to 1000 µM [1] [µM]	Km at 1 h, 50 µM [2] [µM]	Vmax [3] [pmol/min]	Vmax [4] [pmol/min]	IC50 [22] [nM]	SMILES	also measured
28	15	14	2.1	–	CS(=O)(=O)c1ccc(Oc2cc(F)cc(C#N)c2)c2c1[C@H](O)[C@H](F)C2	–
26	15	50	11	–	CS(=O)(=O)c1ccc(Oc2cc(F)cc(C#N)c2)c2c1[C@H](O)[C@@H](F)C2	–
20	11	280	49	–	CS(=O)(=O)c1ccc(Oc2cc(F)cc(C#N)c2)c2c1[C@H](O)C(F)(F)C2	Drug metabolism [5]: Metabolite_Notdetected; AUClast/dose [6]: 3.1 µM·h; solubility thermodynamic [7]: 15 µg/mL (≈ 39.1 µM); inhibition [8]: Active; AUClast/dose [9]: 21 µM·h; concentration at 12 h [10]: 260 ng/mL; Drug metabolism [11]: Metabolite_Detected; concentration at 12 h [12]: 860 ng/mL; AUClast/dose [13]: 7.2 µM·h; fraction unbound at 4 h, 10 µM [14]: 0.29; Activity [15]: Active; logD [16]: 2.2; AUClast/dose [17]: 5.1 µM·h; inhibition (INH) [18]: Active; Drug metabolism [19]: Metabolite_Notdetected; Drug metabolism [20]: Metabolite_Detected; fraction unbound at 4 h, 10 µM [21]: 0.18
–	–	–	–	> 10000	CS(=O)(=O)c1ccc(Oc2cc(F)cc(C#N)c2)c2c1[C@H](O)C[C@H]2F	–
40	12	3.8	0.8	–	CS(=O)(=O)c1ccc(Oc2cc(F)cc(C#N)c2)c2c1[C@H](O)CC2	–
15	5.5	440	72	9	CS(=O)(=O)c1ccc(Oc2cc(F)cc(C#N)c2)c2c1[C@H](O)C(F)(F)[C@@H]2F	EC50 [23]: 4 nM
130	12	1.4	0.3	210	CS(=O)(=O)c1ccc(Oc2cc(F)cc(C#N)c2)c2c1[C@H](O)C[C@@H]2F	EC50 [23]: 460 nM
–	–	–	–	–	CS(=O)(=O)c1ccc(Oc2cc(F)cc(C#N)c2)c2c1[C@H](O[C@@H]1O[C@H](C(=O)O)[C@@H](O)[C@H](O)[C@H]1O)C(F)(F)C2	Km [24]: 97 µM; Drug metabolism [25]: Metabolite_Detected; efflux ratio [26]: < 2; Ratio [27]: 32; Vmax [28]: 1230 pmol/min; Drug metabolism [29]: Metabolite_Detected; Drug metabolism [30]: Metabolite_Detected; efflux ratio [31]: < 2
